Measurements: PubChem BioAssay AID1963420 (Molecular Pharmacology Branch, DTP, NCI, 2024)

Tested on: 494315-158-R-J1-PDC complex spheroid growth, percent test/control
Experiment: Anticancer human tumor 494315-158-R-J1-PDC patient-derived soft tissue sarcoma cell line growth inhibition [Asc]
Settings: for IC50: curve of first compound; for viability, T/C: stronger effect = lower value
Method in brief: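 Tumor cells were grown as complex spheroids with human endothelial cells (HUVEC) and human mesenchymal stem cells as stroma. Agents were tested alone and in combination, in half-log steps down from the clinical Cmax, or from 10 microM where Cmax was unknown.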

[1] = second compound 0.1 µM, first compound 0.0316 µM
[2] = second compound 0.1 µM, first compound 0.1 µM
[3] = second compound 0.1 µM, first compound 0.316 µM
[4] = second compound 0.1 µM, first compound 1 µM
[5] = second compound 0.1 µM, first compound 3.16 µM
[6] = second compound 0.1 µM, first compound 10 µM
[7] = second compound 0.316 µM, first compound 0.0316 µM
[8] = second compound 0.316 µM, first compound 0.1 µM
[9] = second compound 0.316 µM, first compound 0.316 µM
[10] = second compound 0.316 µM, first compound 1 µM
[11] = second compound 0.316 µM, first compound 3.16 µM
[12] = second compound 0.316 µM, first compound 10 µM
[13] = second compound 1 µM, first compound 0.0316 µM
[14] = second compound 1 µM, first compound 0.1 µM
[15] = second compound 1 µM, first compound 0.316 µM
[16] = second compound 1 µM, first compound 1 µM
[17] = second compound 1 µM, first compound 3.16 µM
[18] = second compound 1 µM, first compound 10 µM
[19] = second compound 3.16 µM, first compound 0.0316 µM
[20] = second compound 3.16 µM, first compound 0.1 µM
[21] = second compound 3.16 µM, first compound 0.316 µM
[22] = second compound 3.16 µM, first compound 1 µM
[23] = second compound 3.16 µM, first compound 3.16 µM
[24] = second compound 3.16 µM, first compound 10 µM
[25] = second compound 10 µM, first compound 0.0316 µM
[26] = second compound 10 µM, first compound 0.1 µM
[27] = second compound 10 µM, first compound 0.316 µM
[28] = second compound 10 µM, first compound 1 µM
[29] = second compound 10 µM, first compound 3.16 µM
[30] = second compound 10 µM, first compound 10 µM
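Also: compound exposure lasted seven days after spheroids formed for three days.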

## C#Cc1c(F)ccc2cc(O)cc(-c3ncc4c(N5CC6CCC(C5)N6)nc(OCC56CCCN5CC(F)C6)nc4c3F)c12 (stereo not given) + Cc1c(S(C)(=O)=O)c(-c2cc(F)cc(N3CCN(c4ccc(NS(=O)(=O)c5ccc(NC(CCN6CCC(C(=O)OCCCP(=O)(O)O)CC6)CSc6ccccc6)c(S(=O)(=O)C(F)(F)F)c5)cc4)CC3)c2)c(-c2ccc(Cl)cc2)n1C(C)C
Second compound 0.1 µM
  IC50: > 10000 nM
Second compound 0.316 µM
  IC50: > 10000 nM
Second compound 1 µM
  IC50: > 10000 nM
Second compound 3.16 µM
  IC50: 4040 nM
Second compound 10 µM
  IC50: > 10000 nM
[1]
  viability, T/C: 82.8%
[2]
  viability, T/C: 89.9%
[3]
  viability, T/C: 77.2%
[4]
  viability, T/C: 88.6%
[5]
  viability, T/C: 80.4%
[6]
  viability, T/C: 59.8%
[7]
  viability, T/C: 84.9%
[8]
  viability, T/C: 74.8%
[9]
  viability, T/C: 74.8%
[10]
  viability, T/C: 72.1%
[11]
  viability, T/C: 71.9%
[12]
  viability, T/C: 50.7%
[13]
  viability, T/C: 61.6%
[14]
  viability, T/C: 78.1%
[15]
  viability, T/C: 72.8%
[16]
  viability, T/C: 69.2%
[17]
  viability, T/C: 71.1%
[18]
  viability, T/C: 51.4%
[19]
  viability, T/C: 51.9%
[20]
  viability, T/C: 57.5%
[21]
  viability, T/C: 65.7%
[22]
  viability, T/C: 58.9%
[23]
  viability, T/C: 51.5%
[24]
  viability, T/C: 37.6%
[25]
  viability, T/C: 74.8%
[26]
  viability, T/C: 78.8%
[27]
  viability, T/C: 88.2%
[28]
  viability, T/C: 81.2%
[29]
  viability, T/C: 81.3%
[30]
  viability, T/C: 55.5%

## C=C(F)C(=O)N1CCN(c2nc(OCC3CCCN3C)nc3c2CCN(c2cccc4cccc(Cl)c24)C3)CC1CC#N (stereo not given) + Cc1c(S(C)(=O)=O)c(-c2cc(F)cc(N3CCN(c4ccc(NS(=O)(=O)c5ccc(NC(CCN6CCC(C(=O)OCCCP(=O)(O)O)CC6)CSc6ccccc6)c(S(=O)(=O)C(F)(F)F)c5)cc4)CC3)c2)c(-c2ccc(Cl)cc2)n1C(C)C
Second compound 0.1 µM
  IC50: 1810 nM
Second compound 0.316 µM
  IC50: 1340 nM
Second compound 1 µM
  IC50: 1370 nM
Second compound 3.16 µM
  IC50: 367 nM
Second compound 10 µM
  IC50: 1470 nM
[1]
  viability, T/C: 77.7%
[2]
  viability, T/C: 79.6%
[3]
  viability, T/C: 71.8%
[4]
  viability, T/C: 73.7%
[5]
  viability, T/C: 27.8%
[6]
  viability, T/C: 0.16%
[7]
  viability, T/C: 73.5%
[8]
  viability, T/C: 72.7%
[9]
  viability, T/C: 75.1%
[10]
  viability, T/C: 57%
[11]
  viability, T/C: 25.6%
[12]
  viability, T/C: 0.14%
[13]
  viability, T/C: 64.3%
[14]
  viability, T/C: 67%
[15]
  viability, T/C: 65.5%
[16]
  viability, T/C: 61.1%
[17]
  viability, T/C: 20.6%
[18]
  viability, T/C: 0.12%
[19]
  viability, T/C: 55.9%
[20]
  viability, T/C: 53.4%
[21]
  viability, T/C: 47.8%
[22]
  viability, T/C: 41.1%
[23]
  viability, T/C: 11.1%
[24]
  viability, T/C: 0.15%
[25]
  viability, T/C: 75.8%
[26]
  viability, T/C: 78.5%
[27]
  viability, T/C: 73.5%
[28]
  viability, T/C: 65.3%
[29]
  viability, T/C: 20%
[30]
  viability, T/C: 0.24%

## CCN1C(C(=O)NC23CCC(C(=O)O)(CC2)CC3)C(c2cccc(Cl)c2F)C2(C(=O)Nc3cc(Cl)ccc32)C12CCCCC2 (stereo not given) + Cc1c(S(C)(=O)=O)c(-c2cc(F)cc(N3CCN(c4ccc(NS(=O)(=O)c5ccc(NC(CCN6CCC(C(=O)OCCCP(=O)(O)O)CC6)CSc6ccccc6)c(S(=O)(=O)C(F)(F)F)c5)cc4)CC3)c2)c(-c2ccc(Cl)cc2)n1C(C)C
Second compound 0.1 µM
  IC50: > 3000 nM
Second compound 0.316 µM
  IC50: > 3000 nM
Second compound 1 µM
  IC50: 1020 nM
Second compound 3.16 µM
  IC50: 71.7 nM
Second compound 10 µM
  IC50: > 3000 nM
Second compound 0.1 µM, first compound 0.00949 µM
  viability, T/C: 80.3%
Second compound 0.1 µM, first compound 0.03 µM
  viability, T/C: 86.6%
Second compound 0.1 µM, first compound 0.0949 µM
  viability, T/C: 84.4%
Second compound 0.1 µM, first compound 0.3 µM
  viability, T/C: 77.4%
Second compound 0.1 µM, first compound 0.949 µM
  viability, T/C: 77.4%
Second compound 0.1 µM, first compound 3 µM
  viability, T/C: 67%
Second compound 0.316 µM, first compound 0.00949 µM
  viability, T/C: 79.1%
Second compound 0.316 µM, first compound 0.03 µM
  viability, T/C: 74.9%
Second compound 0.316 µM, first compound 0.0949 µM
  viability, T/C: 64.4%
Second compound 0.316 µM, first compound 0.3 µM
  viability, T/C: 60.7%
Second compound 0.316 µM, first compound 0.949 µM
  viability, T/C: 63.3%
Second compound 0.316 µM, first compound 3 µM
  viability, T/C: 54.3%
Second compound 1 µM, first compound 0.00949 µM
  viability, T/C: 66%
Second compound 1 µM, first compound 0.03 µM
  viability, T/C: 66.3%
Second compound 1 µM, first compound 0.0949 µM
  viability, T/C: 68.8%
Second compound 1 µM, first compound 0.3 µM
  viability, T/C: 62.8%
Second compound 1 µM, first compound 0.949 µM
  viability, T/C: 50.8%
Second compound 1 µM, first compound 3 µM
  viability, T/C: 39.7%
Second compound 3.16 µM, first compound 0.00949 µM
  viability, T/C: 53.3%
Second compound 3.16 µM, first compound 0.03 µM
  viability, T/C: 45.1%
Second compound 3.16 µM, first compound 0.0949 µM
  viability, T/C: 53.8%
Second compound 3.16 µM, first compound 0.3 µM
  viability, T/C: 46.5%
Second compound 3.16 µM, first compound 0.949 µM
  viability, T/C: 45.8%
Second compound 3.16 µM, first compound 3 µM
  viability, T/C: 35.6%
Second compound 10 µM, first compound 0.00949 µM
  viability, T/C: 83%
Second compound 10 µM, first compound 0.03 µM
  viability, T/C: 73.3%
Second compound 10 µM, first compound 0.0949 µM
  viability, T/C: 68.4%
Second compound 10 µM, first compound 0.3 µM
  viability, T/C: 68.5%
Second compound 10 µM, first compound 0.949 µM
  viability, T/C: 52.8%
Second compound 10 µM, first compound 3 µM
  viability, T/C: 52.8%

## CNC(C)C(=O)NC1CN(S(=O)(=O)c2cccc(S(=O)(=O)N3CCC4CCC(C(=O)NC(c5ccccc5)c5ccccc5)N4C(=O)C(NC(=O)C(C)NC)C3)c2)CCC2CCC(C(=O)NC(c3ccccc3)c3ccccc3)N2C1=O (stereo not given) + Cc1c(S(C)(=O)=O)c(-c2cc(F)cc(N3CCN(c4ccc(NS(=O)(=O)c5ccc(NC(CCN6CCC(C(=O)OCCCP(=O)(O)O)CC6)CSc6ccccc6)c(S(=O)(=O)C(F)(F)F)c5)cc4)CC3)c2)c(-c2ccc(Cl)cc2)n1C(C)C
Second compound 0.1 µM
  IC50: 18.8 nM
Second compound 0.316 µM
  IC50: < 3.16 nM
Second compound 1 µM
  IC50: 9.57 nM
Second compound 3.16 µM
  IC50: < 3.16 nM
Second compound 10 µM
  IC50: 22.2 nM
Second compound 0.1 µM, first compound 0.00316 µM
  viability, T/C: 66.2%
Second compound 0.1 µM, first compound 0.01 µM
  viability, T/C: 57.6%
[1]
  viability, T/C: 42.9%
[2]
  viability, T/C: 36.8%
[3]
  viability, T/C: 29.5%
[4]
  viability, T/C: 26.9%
Second compound 0.316 µM, first compound 0.00316 µM
  viability, T/C: 46.4%
Second compound 0.316 µM, first compound 0.01 µM
  viability, T/C: 47.5%
[7]
  viability, T/C: 39.1%
[8]
  viability, T/C: 39.3%
[9]
  viability, T/C: 26%
[10]
  viability, T/C: 30%
Second compound 1 µM, first compound 0.00316 µM
  viability, T/C: 68.2%
Second compound 1 µM, first compound 0.01 µM
  viability, T/C: 43.2%
[13]
  viability, T/C: 42.8%
[14]
  viability, T/C: 34.7%
[15]
  viability, T/C: 26.4%
[16]
  viability, T/C: 23.9%
Second compound 3.16 µM, first compound 0.00316 µM
  viability, T/C: 49%
Second compound 3.16 µM, first compound 0.01 µM
  viability, T/C: 39.7%
[19]
  viability, T/C: 32.6%
[20]
  viability, T/C: 21.8%
[21]
  viability, T/C: 36.7%
[22]
  viability, T/C: 19.8%
Second compound 10 µM, first compound 0.00316 µM
  viability, T/C: 60.3%
Second compound 10 µM, first compound 0.01 µM
  viability, T/C: 60.5%
[25]
  viability, T/C: 44.5%
[26]
  viability, T/C: 36.4%
[27]
  viability, T/C: 29.3%
[28]
  viability, T/C: 29.4%
